Results published in ChEMBL document CHEMBL3832027, “DailyMed|setid=517fbb02-8793-4647-83c7-25a91be49622 | LEVITRA - vardenafil hydrochloride tablet, film coated|PD-Rx Pharmaceuticals, Inc”.

How the values were obtained:
[1] = Evaluation of pharmacokinetic parameters for Vardenafil evaluated following single oral administration of Vardenafil to healthy male volunteers.; type: ADME, organism-based; conditions: human, in vivo, dose 20 mg, dosed compound id 28, dosed compound name VARDENAFIL HYDROCHLORIDE, gender male, regimen Single dose, tissue Plasma
Homo sapiens = experiment: Mean steady-state volume of distribution (Vss) for Vardenafil following oral doses of Vardenafil.; type: ADME, organism-based; conditions: in vivo, dose 20 mg, dosed compound id 28, dosed compound name VARDENAFIL HYDROCHLORIDE, gender male, regimen Multiple dose, tissue Plasma

Tmax ([1]; dietary status Fasting): 0.5 to 2 h | half-life [1]: 4 to 5 h | Vss (Homo sapiens): 208 L
SMILES: CCCc1nc(C)c2c(=O)nc(-c3cc(S(=O)(=O)N4CCN(CC)CC4)ccc3OCC)[nH]n12.Cl [VARDENAFIL HYDROCHLORIDE]
